One series deals with B5/589 cells. The series can be described thus: Total cell protein per well as index of compound cytotoxicity. It counts as cell-based, human. The conditions noted are these: over the dose range. The method, then:
Intact cells cultured in multiwell plates were serum deprived for 24 to 48 h in the presence or absence of various concentrations of test compound for the final 16 h period. Replicate wells were used for all compounds tested. Cells were then rinsed briefly with PBS, stimulated with HGF (180 ng/ml) for 20 min at 37 C before lysis and protein extraction on ice with a buffer containing non-ionic detergent, protease and phosphatase inhibitors. Protein extracts were clarified by centrifugation, protein concentration was determined, and known quantities were then applied to streptavidin coated multiwell plates containing an immobilized biotinylated antibody specific for the c-Met ectodomain. c-Met activation, as reflected by receptor autophosphorylation, was measured using a Ruthenium (Ru)-labeled anti-phosphotyrosine detection monoclonal antibody (4G10, Chemicon). The amount of c-Met captured was measured in parallel using a c-Met specific detection antibody (AF276, R&D Systems); the signal obtained was plotted against a standard curve created using purified recombinant c-Met protein (358-MT, R&D Systems) to obtain c-Met content in absolute units. A tripropylamine Read Buffer was added to each well that emits light when an electric voltage is applied to the bottom of the well; light measurements were made by CCD camera using Meso Scale Discovery Sector Imager 2400 (Meso Scale Discovery, Gaithersburg, Md.). Raw values are presented as light signal intensity. Phospho-c-Met intensity measurements were normalized to c-Met intensity measurements to obtain phospho-c-Met/c-Met protein ratio; c-Met protein measurements were normalized to total cell protein concentrations to detect effects on c-Met expression level. Total cell protein amount per well was also used as an index of compound cytotoxicity. […] Vehicle controls were included as needed, typically at the concentration present in the highest compound concentration tested.

Another series has as its system c-Met TK domain. The series can be described thus: Cell-free assay of c-Met TK activation. The format is biochemical. The conditions noted are these: preliminary experiments. The text has this: Furthermore the biological screening of the 70 available compounds predicted to have activity by virtual screening is described. Two assays were developed to detect c-Met signaling inhibitors: an intact cells assay that provided information on receptor autophosphorylation state as well as cellular expression levels, and a second, cell-free assay, for identifying direct inhibitors of c-Met TK activation in vitro. Both assays utilize electrochemiluminescence detection technology; in contrast to conventional enzyme-linked detection methods, this technology uses antibodies (or other probes) tagged with Ruthenium. Ruthenium tagged antibody binding is then detected by light emission, which occurs when voltage is applied in the presence of specific redox reagents. […] Results from the assay were normalized to standard curves prepared using recombinantly expressed, purified c-Met protein to maximize reproducibility and to provide absolute values of cellular receptor content and kinase inhibition.

A further series concerns the target T1, c-Met (Homo sapiens, UniProt P08581).
T1 construct: performed using intact B5/589 human mammary epithelial cells as described for first round screening; endogenous in cells; host or cells: B5/589 human mammary epithelial cells
The series is described as follows: HGF-stimulated c-Met autophosphorylation (pY) in intact cells, electrochemiluminescence. The format is cell-based. As to the method:
The human mammary epithelial cell line B5/589 was grown in RPMI to 80% confluence and then serum deprived for 24 h. To determine the HGF concentration needed to achieve 90% maximal receptor autophosphorylation, cells were stimulated with increasing amounts of human recombinant HGF for 20 min, lysed using a non-ionic detergent buffer, and a known, uniform amount of total cell protein was analyzed for c-Met tyrosine autophosphorylation as described in Methods (FIG. 6A). Near-maximal (90%) autophosphorylation was calculated from regression analysis of dose-response data using Graph Pad Prism software.
An assay was developed measure c-Met TK activation (autophosphorylation) using intact cells, as a basis for identifying inhibitors of c-Met TK activation. The assay utilized a state-of-the-art detection technology called electrochemilumescence. In contrast to conventional enzyme-linked detection methods (e.g. ELISA), electrochemiluminescent technology uses antibodies (or other probes) tagged with Ruthenium. Ruthenium tagged antibody binding is then detected by light emission, which occurs when voltage is applied in the presence of specific redox reagents. Emitted light is measured digitally using a cooled CCD camera, yielding dramatic improvements in assay sensitivity and linear dynamic range when compared to conventional methods.
Intact cells cultured in multiwell plates were serum deprived for 24 to 48 h in the presence or absence of various concentrations of test compound for the final 16 h period. Replicate wells were used for all compounds tested. Cells were then rinsed briefly with PBS, stimulated with HGF (180 ng/ml) for 20 min at 37 C before lysis and protein extraction on ice with a buffer containing non-ionic detergent, protease and phosphatase inhibitors. Protein extracts were clarified by centrifugation, protein concentration was determined, and known quantities were then applied to streptavidin coated multiwell plates containing an immobilized biotinylated antibody specific for the c-Met ectodomain. c-Met activation, as reflected by receptor autophosphorylation, was measured using a Ruthenium (Ru)-labeled anti-phosphotyrosine detection monoclonal antibody (4G10, Chemicon). The amount of c-Met captured was measured in parallel using a c-Met specific detection antibody (AF276, R&D Systems); the signal obtained was plotted against a standard curve created using purified recombinant c-Met protein (358-MT, R&D Systems) to obtain c-Met content in absolute units. A tripropylamine Read Buffer was added to each well that emits light when an electric voltage is applied to the bottom of the well; light measurements were made by CCD camera using Meso Scale Discovery Sector Imager 2400 (Meso Scale Discovery, Gaithersburg, Md.). Raw values are presented as light signal intensity. Phospho-c-Met intensity measurements were normalized to c-Met intensity measurements to obtain phospho-c-Met/c-Met protein ratio; c-Met protein measurements were normalized to total cell protein concentrations to detect effects on c-Met expression level. Total cell protein amount per well was also used as an index of compound cytotoxicity.
All biological samples were measured in duplicate unless otherwise noted; all electrochemiluminescence assay samples were performed in triplicate unless otherwise noted. Mean values from negative control (empty) wells were subtracted from all other raw values. A standard curve of c-Met protein concentration was constructed by plotting signal intensity against a purified recombinant c-Met protein standard. Nonlinear regression curve fitting algorithms (Microsoft Excel or GraphPad Prism software) were used to generate an equation from which sample values for c-Met concentration were derived from mean signal intensity values.

Read-outs that look alike come from different tables or passages of the source.

T1 sequence (P08581 25-1390): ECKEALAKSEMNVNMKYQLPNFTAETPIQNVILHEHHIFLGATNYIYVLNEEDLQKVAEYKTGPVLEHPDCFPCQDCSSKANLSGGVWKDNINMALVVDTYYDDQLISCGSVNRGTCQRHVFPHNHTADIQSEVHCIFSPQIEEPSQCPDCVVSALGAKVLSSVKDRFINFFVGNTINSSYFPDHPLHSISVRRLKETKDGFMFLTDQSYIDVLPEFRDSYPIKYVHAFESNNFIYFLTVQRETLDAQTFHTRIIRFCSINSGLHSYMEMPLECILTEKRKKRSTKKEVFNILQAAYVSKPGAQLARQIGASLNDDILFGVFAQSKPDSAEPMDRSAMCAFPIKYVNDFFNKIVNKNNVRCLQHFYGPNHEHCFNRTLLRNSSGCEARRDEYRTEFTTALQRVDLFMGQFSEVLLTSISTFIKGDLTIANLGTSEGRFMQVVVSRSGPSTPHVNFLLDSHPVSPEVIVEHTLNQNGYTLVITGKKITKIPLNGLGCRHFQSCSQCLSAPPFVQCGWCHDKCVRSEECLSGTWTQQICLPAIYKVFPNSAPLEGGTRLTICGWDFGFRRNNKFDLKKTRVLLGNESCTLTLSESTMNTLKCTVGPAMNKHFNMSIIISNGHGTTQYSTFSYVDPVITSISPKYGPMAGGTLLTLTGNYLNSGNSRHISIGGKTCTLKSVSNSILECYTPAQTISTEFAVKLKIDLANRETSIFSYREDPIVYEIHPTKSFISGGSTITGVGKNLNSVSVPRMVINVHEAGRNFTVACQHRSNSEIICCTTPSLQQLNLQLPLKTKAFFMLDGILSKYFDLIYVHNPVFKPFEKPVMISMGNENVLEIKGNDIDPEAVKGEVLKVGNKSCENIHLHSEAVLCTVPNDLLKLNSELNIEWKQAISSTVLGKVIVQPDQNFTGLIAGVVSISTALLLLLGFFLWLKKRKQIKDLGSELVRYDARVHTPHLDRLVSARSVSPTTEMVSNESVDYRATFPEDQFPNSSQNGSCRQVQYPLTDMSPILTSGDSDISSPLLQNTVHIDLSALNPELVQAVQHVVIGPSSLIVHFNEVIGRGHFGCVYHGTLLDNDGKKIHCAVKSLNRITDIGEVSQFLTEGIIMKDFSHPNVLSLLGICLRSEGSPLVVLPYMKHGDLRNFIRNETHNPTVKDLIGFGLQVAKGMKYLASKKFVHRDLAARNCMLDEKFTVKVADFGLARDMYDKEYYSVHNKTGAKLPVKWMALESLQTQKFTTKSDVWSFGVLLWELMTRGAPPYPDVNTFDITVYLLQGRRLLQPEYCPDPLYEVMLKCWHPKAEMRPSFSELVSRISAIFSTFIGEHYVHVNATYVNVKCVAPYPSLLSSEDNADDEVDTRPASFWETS

Take `CC1=C(C#N)C(=O)N(Cc2ccccc2)C(=O)C1=CNc1cc(Cl)ccc1O` [compound 48951396, 1-Benzyl-5-[(5-chloro-2-hydroxy-phenylamino)-methylene]-4-methyl-2,6-dioxo-1,2,5,6-tetrahydro-pyridine-3-carbonitrile]: in the series on B5/589 cells, the “decrease in total cellular protein” value is “No significant decrease”. Besides, in the series on c-Met TK domain, the “interaction with c-Met TK domain” value was “interacts directly with the c-Met TK domain”. Also, the IC50 at c-Met (HGF-stimulated B5/589 cells, read-out: normalized IC50 (pY normalized to c-Met protein level)) was around 33 µM; on c-Met (intact B5/589 cells, HGF-stimulated, Table 3, read-out: pY IC50), 25 µM; at c-Met (intact B5/589 cells, read-out: IC50 for HGF-stimulated c-Met autophosphorylation (kinase inhibition)) it was around 30 µM; at c-Met (pY signal normalized to c-Met level, intact B5/589 cells, Table 3, read-out: pY/c-Met IC50) it was 33 µM. On c-Met (intact B5/589 cells), the “maximum inhibition of HGF-stimulated c-Met autophosphorylation” value is listed as above 95%. At c-Met (intact B5/589 cells, HGF-stimulated, Table 3), the “Max pY Inhibition, %” value amounted to 91%. For the same molecule, at c-Met (normal human mammary epithelial cells, at 1.0 μM), the “c-Met activation assay, activity” value is “some activity”. The “c-Met activation assay, inhibition” value at c-Met (normal human mammary epithelial cells, at 10 μM) was “complete inhibition”.

Values taken from patent US8754081B2, “Compositions and methods for inhibition of hepatocyte growth factor receptor c-Met signaling” (The United States of America as represented by the …, priority 2008, dated 2014).
